Laboratory results as given in ChEMBL document CHEMBL1130776, “Synthesis and biological activity of 3-substituted 3-desoxynaltrindole derivatives” (Bioorg Med Chem Lett, 1998).
pKi: −log10 of the molar value.

How the values were obtained:
[1] = target: Delta-type opioid receptor (Rattus norvegicus, UniProt P33533); assay: Compound was tested for its ability to displace [3H]DADLE from delta receptor in rat brain.; format: tissue-based
[2] = target: Kappa-type opioid receptor (Cavia porcellus, UniProt P41144); assay: Compound was tested for its ability to displace [3H]U-69593 from kappa receptor in guinea pig brain.
Sequence of Kappa-type opioid receptor (P41144 whole entry): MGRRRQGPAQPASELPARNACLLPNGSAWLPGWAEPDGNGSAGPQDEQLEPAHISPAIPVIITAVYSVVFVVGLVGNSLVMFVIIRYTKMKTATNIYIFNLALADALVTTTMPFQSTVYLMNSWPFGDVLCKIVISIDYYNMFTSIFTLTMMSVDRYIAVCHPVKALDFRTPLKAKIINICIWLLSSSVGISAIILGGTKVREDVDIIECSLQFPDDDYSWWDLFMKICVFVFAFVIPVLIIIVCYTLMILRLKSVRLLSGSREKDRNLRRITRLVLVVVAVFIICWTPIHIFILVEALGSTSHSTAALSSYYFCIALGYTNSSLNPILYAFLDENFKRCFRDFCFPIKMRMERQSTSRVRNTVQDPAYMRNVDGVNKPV

Mu-type opioid receptor = Mu-type opioid receptor (Rattus norvegicus, UniProt P33535); assay: Compound was tested for its ability to displace [3H]DAMGO from mu receptor in rat brain.; format: tissue-based
Sequence of Mu-type opioid receptor (P33535 whole entry): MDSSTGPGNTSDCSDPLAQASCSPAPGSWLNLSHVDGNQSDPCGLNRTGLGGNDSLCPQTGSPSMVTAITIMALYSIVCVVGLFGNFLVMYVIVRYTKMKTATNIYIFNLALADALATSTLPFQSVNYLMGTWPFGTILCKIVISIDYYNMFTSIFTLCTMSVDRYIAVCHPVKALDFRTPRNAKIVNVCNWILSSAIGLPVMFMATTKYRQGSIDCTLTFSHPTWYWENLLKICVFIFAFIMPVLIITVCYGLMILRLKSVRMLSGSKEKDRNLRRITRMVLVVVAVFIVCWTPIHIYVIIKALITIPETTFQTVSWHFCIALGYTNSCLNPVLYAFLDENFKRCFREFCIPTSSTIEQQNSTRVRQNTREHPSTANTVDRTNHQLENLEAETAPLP

Sequence of Delta-type opioid receptor (P33533 whole entry): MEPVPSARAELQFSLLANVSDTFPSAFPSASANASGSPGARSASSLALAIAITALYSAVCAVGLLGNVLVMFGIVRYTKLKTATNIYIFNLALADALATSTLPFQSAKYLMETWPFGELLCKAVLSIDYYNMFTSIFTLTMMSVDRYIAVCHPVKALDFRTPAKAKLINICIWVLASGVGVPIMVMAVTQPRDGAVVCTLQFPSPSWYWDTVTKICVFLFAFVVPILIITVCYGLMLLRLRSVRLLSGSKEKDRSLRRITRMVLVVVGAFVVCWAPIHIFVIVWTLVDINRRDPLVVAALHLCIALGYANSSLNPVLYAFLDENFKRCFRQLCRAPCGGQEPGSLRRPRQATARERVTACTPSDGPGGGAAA

Row | SMILES | pKi [1] | pKi [2] | pKi (Mu-type opioid receptor)
1 | Oc1cccc(-c2ccc3c4c2O[C@H]2c5[nH]c6ccccc6c5C[C@@]5(O)[C@@H](C3)N(CC3CC3)CC[C@]425)c1 | 5.79 | < 5.17 | < 5.25
2 | Cc1ccc2c3c1O[C@H]1c4[nH]c5ccccc5c4C[C@@]4(O)[C@@H](C2)N(CC2CC2)CC[C@]314 | 7.15 | < 5.17 | < 5.25
3 | Oc1ccc2c3c1O[C@H]1c4[nH]c5ccccc5c4C[C@@]4(O)[C@@H](C2)N(CC2CC2)CC[C@]314 [NALTRINDOLE] | 9.66 | 7.52 | 
4 | O[C@@]12Cc3c([nH]c4ccccc34)[C@H]3Oc4cccc5c4[C@@]31CCN(CC1CC1)[C@@H]2C5 | 7.46 | 4.96 | < 5.25
5 | COc1cccc(-c2ccc3c4c2O[C@H]2c5[nH]c6ccccc6c5C[C@@]5(O)[C@@H](C3)N(CC3CC3)CC[C@]425)c1 | < 5.18 | < 5.17 | < 5.25
6 | O[C@@]12Cc3c([nH]c4ccccc34)[C@@H]3Oc4c(-c5ccccc5)ccc5c4[C@@]31CCN(CC1CC1)[C@@H]2C5 | 4.98 | < 5.17 | < 5.25
7 | O[C@@]12Cc3c([nH]c4ccccc34)[C@@H]3Oc4c(-c5ccco5)ccc5c4[C@@]31CCN(CC1CC1)[C@@H]2C5 | 6.02 | < 5.17 | < 5.25
8 | C=Cc1ccc2c3c1O[C@H]1c4[nH]c5ccccc5c4C[C@@]4(O)[C@@H](C2)N(CC2CC2)CC[C@]314 | 7.21 | 4.75 | < 5.25
